Results published in patent publication US4293483A, “Derivatives of A-30912A nucleus” (priority 1980, dated 1981).
In brackets after ≈: the same amount, converted by molar mass. Several values for one entry are separate records, joined by “and”; a condition that tells them apart may be missing. Equal values may be shown once. Read-outs that look alike come from different tables or passages of the source. Numbered stars: 1 amine (or outer) side, 2 acyl side, 3 side chain; on linkers, the order of the positions; unused ones are H or OH. Bridge positions count the residues as written; N and C are the ends. Square brackets hold non-standard residues; d marks the D form. Peptide text beside a SMILES is read from it. * marks the point of attachment. Orn(4R-OH,5R-OH) = O=C([C@H](C[C@@H](O)[C@@H](O)N[*:3])N[*:1])[*:2]; hTyr(3S-OH,4S-OH) = N[C@H](C(=O)O)[C@H](O)[C@@H](O)c1ccc(O)cc1; Pro(3S-OH,4S-Me) = C[C@H]1CN[C@H](C(=O)O)[C@H]1O; Hyp = O=C(O)[C@@H]1C[C@@H](O)CN1; Lauroyl = CCCCCCCCCCCC(=O)*; 4Abz = Nc1ccc(C(=O)O)cc1; Aun = NCCCCCCCCCCC(=O)O; Ava = NCCCCC(=O)O

Columns and labels:
[1] = tested on: fungi; experiment: Antifungal activity of the cyclic nucleus; type: cell-based; conditions: in words; nucleus lacking the linoleoyl side chain
[2] = tested on: Candida albicans A-26; experiment: Agar plate disc diffusion test, MIC per disc; type: cell-based; conditions: 0.01M sodium borate, pH 7.5, 24 hours at 30° C.
Method: (§3) *Compounds were suspended in 0.01M sodium borate solution, pH 7.5.
(§4) compounds were tested at 20 μg/disc at top level and at twofold
(§5) dilutions until end points were reached.

[3] = mouse, in vivo, 416 mg/kg, 240 min
Method: (§6) In this test, mice are gavaged with a dose of 416 mg/kg of the test compound suspended in 33% PEG 400-water. At time intervals, blood samples are taken from the orbital sinus and are assayed for antibiotic activity as follows: A 7 mm. disc containing 20 μl of whole blood is placed on agar seeded with Aspergillus montevidensis A35137. After 40 hours incubation at 30° C. zones of inhibition from the blood samples are compared to a standard obtained from the test compound, and the amount of compound in the blood sample is calculated.

[4] = tested on: Trychophyton mentagrophytes #6; experiment: Agar plate disc diffusion test, MIC per disc; type: cell-based; conditions: 0.01M sodium borate, pH 7.5, 24 hours at 30° C.
Method: as §3, §4, §5

[5] = tested on: Saccharomyces pastorianus X-52; experiment: Agar plate disc diffusion test, zone of inhibition; type: cell-based; conditions: 1 mg/ml suspension in methanol, 7 mm disc, 24-48 hours at 25-37° C.; for zone of inhibition at 1000 µg/mL: Saccharomyces pastorianus, X52, 48 h
Method: (§7) ^(a) Compounds were tested as suspension in methanol.
(§8) were tested at a concentration of 1 mg/ml by a dipping 7mm disc into the
(§9) suspension and placing it on the agar surface. Incubation: 24-48 hours at

[6] = tested on: Trichophyton mentagrophytes; experiment: Agar plate disc diffusion test, zone of inhibition; type: cell-based
Method: as §7, §8, §9

[7] = tested on: Candida albicans A-26; experiment: Therapeutic activity against Candida albicans A-26 infection in mice; type: in vivo; conditions: A26, sc
Method: The results of in vivo tests to evaluate the effectiveness of the compound of Examples 61-81, 86 and 88 against an infection caused by Candida albicans A-26 in mice are given in Table 7, where activity is measured by the ED50 value (the dose in mg/kg. required to cure 50% of the test animals). Where an ED50 value was not obtained, activity is indicated by the lowest dose at which a significant anti-fungal effect is observed. In this test, groups of male albino mice (specific pathogen free), weighing 18 to 20 grams, are infected intravenously with Candida albicans A-26. The animals are X-irradiated 24 hours prior to infection at about 50 roentgens per minute for 8 minutes (400 total dose) to reduce immune responses to the infecting organism. At 0, 4, and 24 hours post infection each group of mice is given graded doses subcutaneously of the test compound as a suspension in 33% polyethylene glycol-water. The day of death for each animal is recorded.
*Dosage Schedule: 40, 20, 15, and 10 mg/kg. Dosages given 0, 4, and 24
hours post injection as suspension of test compound in 30% PEGH2 O.
Number of mice receiving test compounds at each dosage level: 6 mice per
group. Number of mice in control (untreated) group: 10 mice per group.
**As measured by increase in survival time of treated animals versus
control, calculated by method of Reed V. Mueuch, American J. Hygiene, 493

[8] = tested on: Candida albicans SBH 16; experiment: Agar dilution assay; type: cell-based
Method: (§1) Tables 4 and 5 give the results of the testing in vitro of the compounds of Examples 61-81 by agar-plate disc-diffusion methods. In Table 4 activity is measured by the size (diameter in mm.) of the observed zone of inhibition of the microorganism produced by the test compound. In Table 5, activity is measured by the minimal inhibitory concentration (MIC) of the substance (μg/disc) required to inhibit growth of the test organism. Table 6 gives the results of the testing in vitro of the N-(n-dodecanoyl)-p-aminobenzoyl derivative of A30912A nucleus (Formula III, R^1 is N-(dodecanoyl)-p-aminobenzoyl) against five strains of Candida albicans by the agar dilution method. In Table 6 activity is measured by the minimal inhibitory concentration (MIC) of the substance (μg/ml) required to inhibit the test organism.
(§2) In vitro activity of the N-(n-dodecanoyl)-p-aminobenzoyl (Example 64) and the N-(n-dodecanoyl)-5-amino-n-pentanoyl (Example 62) derivatives of A-30912A nucleus against 5 strains of Candida albicans by the agar dilution assay.

[9] = tested on: Candida albicans A26; experiment: Agar dilution assay; type: cell-based
Method: as §1, §2

[10] = tested on: Candida albicans SBH 31; experiment: Agar dilution assay; type: cell-based
Method: as §1, §2

[11] = tested on: Candida albicans SBH 28; experiment: Agar dilution assay; type: cell-based
Method: as §1, §2

[12] = tested on: Candida albicans SBH 29; experiment: Agar dilution assay; type: cell-based
Method: as §1, §2

[13] = tested on: Neurospora Crassa 846; experiment: Agar plate disc diffusion test, zone of inhibition; type: cell-based; conditions: 7 mm disc; for zone of inhibition at 1000 µg/mL: Neurospora crassa
Method: as §7, §8, §9

[14] = tested on: Candida albicans A-26; experiment: Agar plate disc diffusion test, zone of inhibition; type: cell-based; conditions: 1 mg/ml suspension in methanol, 7 mm disc, 24-48 hours at 25-37° C., no regrowth mark
Method: as §7, §8, §9

[15] = in vivo; conditions: mouse, po, 416 mg/kg
Method: as §6

[16] = Toxicity in dog on intravenous administration; type: in vivo; conditions: 100 mg/kg per day for five days
[17] = Blood levels after oral administration in mice; conditions: mouse, in vivo, po, 416 mg/kg
Method: as §6

[18] = Saccharomyces pastorianus X-52, read-out: Size of Zone of Inhibition
[19] = 1 mg/ml, 7 mm disc, * measurable zone of inhibition with regrowth of organism around disc, read-out: Size of Zone of Inhibition (*)
[20] = subcutaneous at 0, 4 and 24 hours post infection, dose to cure 50% of test animals, by increase in survival time, read-out: ED50
[21] = subcutaneous at 0, 4 and 24 hours post infection, lowest dose with significant anti-fungal effect, read-out: Lowest Active Dose
[22] = CRASSA846, Neurospora Crassa 846, 1 mg/ml, * measurable zone of inhibition with regrowth of organism around disc, read-out: Size of Zone of Inhibition (*)
[23] = 1 mg/ml, 7 mm disc, * measurable zone of inhibition with regrowth of organism around disc

| MIC [2] | Blood Levels [3] [ng/mL] | MIC [4] [μg/disc] | Structure (SMILES) | zone of inhibition at 1000 µg/mL [5, 18] [mm] | zone of inhibition at 1000 µg/mL [6, 19] [mm] | ED50 [7, 20] [mg/kg] | minimal effective dose [7, 21] [mg/kg] | zone of inhibition at 1000 µg/mL [13, 22] [mm] | Size of Zone of Inhibition [14] | Size of Zone of Inhibition ([5]; Saccharomyces pastorianus X-52) [mm] | Size of Zone of Inhibition (*) [6, 23] [mm] | other results |
| --- | --- | --- | --- | --- | --- | --- | --- | --- | --- | --- | --- | --- |
|  |  |  | C[C@@H](O)[C@@H]1NC(=O)[C@H]([C@H](O)[C@@H](O)c2ccc(O)cc2)NC(=O)[C@@H]2C[C@@H](O)CN2C(=O)[C@H]([C@@H](C)O)NC(=O)[C@@H](N)C[C@@H](O)[C@@H](O)NC(=O)[C@@H]2[C@@H](O)[C@@H](C)CN2C1=O [A-30912A nucleus] (H-[Orn(4R-OH,5R-OH)]T[Hyp][hTyr(3S-OH,4S-OH)]T[Pro(3S-OH,4S-Me)]; lactam 1-C) |  |  |  |  |  |  |  |  | antifungal activity [1]: substantially devoid of antifungal activity |
| 1.25 μg/disc | 0 | 0.078 | CCCCCCCCCCCC(=O)NCCCCC(=O)N[C@H]1C[C@@H](O)[C@@H](O)NC(=O)[C@@H]2[C@@H](O)[C@@H](C)CN2C(=O)[C@H]([C@@H](C)O)NC(=O)[C@H]([C@H](O)[C@@H](O)c2ccc(O)cc2)NC(=O)[C@@H]2C[C@@H](O)CN2C(=O)[C@H]([C@@H](C)O)NC1=O [Example 62, N-(n-dodecanoyl)-5-amino-n-pentanoyl derivative of A-30912A nucleus] ({Lauroyl-Ava}-[Orn(4R-OH,5R-OH)]T[Hyp][hTyr(3S-OH,4S-OH)]T[Pro(3S-OH,4S-Me)]; lactam 1-C) | 15 | 60 | 22 | 20 | 27 | 25 mm |  |  | MIC ([8]; SBH16, agar dilution, strain SBH 16, read-out: MIC): 2.5 µg/mL (≈ 2.32 µM); MIC ([9]; agar dilution, strain A26, read-out: MIC): 1.25 µg/mL (≈ 1.16 µM); MIC ([10]; SBH31, agar dilution, strain SBH 31, read-out: MIC): 2.5 µg/mL (≈ 2.32 µM); MIC ([11]; SBH28, agar dilution, strain SBH 28, read-out: MIC): 2.5 µg/mL (≈ 2.32 µM); MIC ([12]; SBH29, agar dilution, strain SBH 29, read-out: MIC): 2.5 µg/mL (≈ 2.32 µM) |
| 2.5 μg/disc and 1.25 μg/disc | 0 | 0.156 | CCCCCCCCCCCC(=O)NCCCCCCCCCCC(=O)N[C@H]1C[C@@H](O)[C@@H](O)NC(=O)[C@@H]2[C@@H](O)[C@@H](C)CN2C(=O)[C@H]([C@@H](C)O)NC(=O)[C@H]([C@H](O)[C@@H](O)c2ccc(O)cc2)NC(=O)[C@@H]2C[C@@H](O)CN2C(=O)[C@H]([C@@H](C)O)NC1=O [Example 63] ({Lauroyl-Aun}-[Orn(4R-OH,5R-OH)]T[Hyp][hTyr(3S-OH,4S-OH)]T[Pro(3S-OH,4S-Me)]; lactam 1-C) | 15 | 55 | > 40 | > 40 | 28 | 24 mm and 25 mm | 18 | 63 | zone of inhibition at 1000 µg/mL ([6]; 48 h, 1 mg/ml suspension in methanol, 7 mm disc, 24-48 hours at 25-37° C., no regrowth mark, read-out: Size of Zone of Inhibition): 56 mm; concentration at 4 h [15]: 400 ng/mL; Size of Zone of Inhibition ([13]; Neurospora Crassa 846, 1 mg/ml suspension in methanol, 24-48 hours at 25-37° C., no regrowth mark): 28 mm; zone of inhibition at 1000 µg/mL ([13]; CRASSA846, 48 h, Neurospora Crassa 846, 1 mg/ml suspension in methanol, 24-48 hours at 25-37° C., no regrowth mark, read-out: Size of Zone of Inhibition): 35 mm |

| Structure (SMILES) | MIC [2] | Blood Levels [3] [ng/mL] | MIC [4] [μg/disc] | zone of inhibition at 1000 µg/mL [5, 18] [mm] | zone of inhibition at 1000 µg/mL [6, 19] [mm] | ED50 [7, 20] [mg/kg] | minimal effective dose [7, 21] [mg/kg] | zone of inhibition at 1000 µg/mL [13, 22] [mm] | Size of Zone of Inhibition [14] | Size of Zone of Inhibition ([5]; Saccharomyces pastorianus X-52) [mm] | Size of Zone of Inhibition (*) [6, 23] [mm] | other results |
| --- | --- | --- | --- | --- | --- | --- | --- | --- | --- | --- | --- | --- |
| CCCCCCCCCCCC(=O)Nc1ccc(C(=O)N[C@H]2C[C@@H](O)[C@@H](O)NC(=O)[C@@H]3[C@@H](O)[C@@H](C)CN3C(=O)[C@H]([C@@H](C)O)NC(=O)[C@H]([C@H](O)[C@@H](O)c3ccc(O)cc3)NC(=O)[C@@H]3C[C@@H](O)CN3C(=O)[C@H]([C@@H](C)O)NC2=O)cc1 [Example 64, N-(n-dodecanoyl)-p-aminobenzoyl derivative of A-30912A nucleus] ({Lauroyl-4Abz}-[Orn(4R-OH,5R-OH)]T[Hyp][hTyr(3S-OH,4S-OH)]T[Pro(3S-OH,4S-Me)]; lactam 1-C) | 0.625 μg/disc and 1.25 μg/disc |  |  |  |  |  |  |  | 23 mm and 19 mm | 17 | 56 | SGPT levels [16]: increased SGPT levels were observed; outward signs of toxicity [16]: no outward signs of toxicity; zone of inhibition at 1000 µg/mL ([5]; read-out: Size of Zone of Inhibition, Saccharomyces pastorianus X-52): 21 mm; zone of inhibition at 1000 µg/mL ([6]; read-out: Size of Zone of Inhibition (*), Trichophyton mentagrophytes, 1 mg/ml, 7 mm disc, * measurable zone of inhibition with regrowth of organism around disc): 55 mm; ED50 [7]: 15 mg/kg; minimal effective dose ([7]; read-out: Lowest Active Dose, subcutaneous at 0, 4 and 24 hours post infection, lowest dose with significant anti-fungal effect): 10 mg/kg; MIC ([8]; SBH16): 0.625 µg/mL (≈ 0.569 µM); MIC ([9]; A26): 0.312 µg/mL (≈ 0.284 µM); MIC ([10]; SBH31): 0.625 µg/mL (≈ 0.569 µM); MIC ([11]; SBH28): 0.625 µg/mL (≈ 0.569 µM); MIC ([12]; SBH29): 0.625 µg/mL (≈ 0.569 µM); Size of Zone of Inhibition (*) ([13]; Neurospora Crassa 846, 1 mg/ml, * measurable zone of inhibition with regrowth of organism around disc): 35 mm; zone of inhibition at 1000 µg/mL ([13]; CRASSA846, read-out: Size of Zone of Inhibition (*), Neurospora Crassa 846, 1 mg/ml, * measurable zone of inhibition with regrowth of organism around disc): 33 mm; concentration at 4 h [17]: 830 ng/mL |
